Measured values published in US6440691B1, “Melanins with improved ability to inhibit HIV replication” (Large Scale Biology Corporation, priority 1997, dated 2002).
Where a SMILES comes first, the peptide text is derived from it.

How the values were obtained:
HIV-1 IIIB = assay: Anti-HIV activity: protection of MT-2 cells from viral-induced cytopathic effect, neutral red uptake; type: cell-based; conditions: Table 2, CPE after three days
Method: Dried melanins were analyzed for anti-HIV activity essentially as described by Montefiori, et al., 1988, J. Clin. Microbiol. […] In brief, the antiviral activities of the various melanins and melanin derivatives described in the present examples were measured in 96-well microdilution plates. Two-fold serial dilutions of melanins were made in triplicate in a total of 100 μl growth medium (RPMI-1640 containing 12% host-inactivated fetal bovine serum and 50 μg gentamicin/ml) per well. MT-2 cells (5×10^4) in 100 μl of growth medium were added to each well and incubated for 10 minutes. Fifty microliters of virus (5×10^4 TCID50/50 μl) were then added to all wells except for one row of eight noncytopathic control wells; these received growth medium in place of virus. Viral-induced cytopathic effect (CPE) was quantified three days later by vital dye (neutral red) uptake in remaining viable cells. Neutral red uptake is a linear function of cell viability with A540 of 0.025 to 0.85 corresponding to 2×10^4 to 25×10^4 viable cells/well (Montefiori, et al., 1988). Percent protection is defined as the difference in A540 between test wells (cells+melanin+virus) and virus control wells (cells+virus) divided by the difference in between cell control wells (cells only) and virus control wells.

HIV-1 (111a) = system: HIV-1 (111a); set-up: unit not given here; conditions: Table 1; cited from earlier work
HIV-2 (ROD) = system: HIV-2 (ROD); set-up: unit not given here; conditions: Table 1; cited from earlier work

Compound	Effective Dose 50 EC50 (HIV-1 IIIB)	50% inhibitory concentration IC50, HIV-1 (111a) (HIV-1 (111a))	50% inhibitory concentration IC50, HIV-2 (ROD) (HIV-2 (ROD))
NCC(=O)N[C@@H](Cc1ccc(O)cc1)C(=O)O [Gly-Tyr] (H-Gly-Tyr-OH)	>50 µg/mL		
ã-cyclodextrin octasulfate		0.6	1.6
á-cyclodextrin tetradecasulfate		0.8	1.0
ã-cyclodextrin hexadecasulfate		0.2	0.4
â-cyclodextrin heptasulfate		3.0	1.8
á-cyclodextrin hexasulfate		26.2	1.9
